ChEMBL document CHEMBL1132366, “Conceptually new sulfone analogues of the hormone 1alpha, 25-dihydroxyvitamin D(3): synthesis and preliminary biological evaluation” (J Med Chem, 1999)

Legend:
[1] = target: T1, Vitamin D3 receptor (Rattus norvegicus) (UniProt P13053); assay: Vitamin D3 receptor-mediated transcriptional potency in rat osteosarcoma ROS 17/2.8 cells
T1 sequence (whole entry): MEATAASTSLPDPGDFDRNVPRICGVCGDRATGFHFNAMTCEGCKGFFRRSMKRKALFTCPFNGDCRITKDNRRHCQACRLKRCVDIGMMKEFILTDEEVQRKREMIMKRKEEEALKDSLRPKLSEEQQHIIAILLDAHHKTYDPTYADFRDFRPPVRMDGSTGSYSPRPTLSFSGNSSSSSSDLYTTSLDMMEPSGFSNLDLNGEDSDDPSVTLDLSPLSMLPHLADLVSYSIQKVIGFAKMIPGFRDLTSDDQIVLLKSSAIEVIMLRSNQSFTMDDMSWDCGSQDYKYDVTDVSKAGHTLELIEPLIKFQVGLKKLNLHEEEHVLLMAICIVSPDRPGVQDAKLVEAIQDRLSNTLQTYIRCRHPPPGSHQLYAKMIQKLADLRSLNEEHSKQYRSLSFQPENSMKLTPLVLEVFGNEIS

[2] = target: T1, Vitamin D3 receptor (Rattus norvegicus); assay: Binding affinity for vitamin D3 receptor compared to 1,25D3 (100%)

C=C1/C(=C/C=C2/CCC[C@]3(C)C([C@H](C)CCC(F)(F)S(=O)(=O)C(C)(C)C)=CC[C@@H]23)C[C@@H](O)C[C@@H]1O
ED50 [1]: 0.65 nM
Affinity [2]: 7.9%

C=C1/C(=C/C=C2/CCC[C@]3(C)C([C@H](C)CCS(=O)(=O)C(C)(C)C)=CC[C@@H]23)C[C@@H](O)C[C@@H]1O
ED50 [1]: 0.8 nM
Affinity [2]: 21%

C=C1/C(=C/C=C2/CCC[C@]3(C)C([C@H](C)C/C=C(/F)S(=O)(=O)C(C)(C)C)=CC[C@@H]23)CC(O)CC1O (some centres not stated)
ED50 [1]: 4 nM
Affinity [2]: 4%

C=C1C(=CC=C2CCC[C@]3(C)[C@@H]([C@H](C)CCCC(C)(C)O)CC[C@@H]23)C[C@@H](O)C[C@@H]1O
ED50 [1]: 0.35 nM
